Source: patent publication US10906938B2, “Cell epitopes and combination of cell epitopes for use in the immunotherapy of myeloma and other cancers” (Immatics Biotechnologies GmbH, priority 2015, dated 2021)

System: U266 cells
Experiment: HLA class I ligand presentation upon carfilzomib treatment on U266 cells (LC-MS/MS)
Format: cell-based, human
Set-up: key to modulation upon carfilzomib-treatment 24 #1 / modulation upon carfilzomib-treatment 24 #2 / modulation upon carfilzomib-treatment 24 #3 / modulation upon carfilzomib-treatment 48 #1 / modulation upon carfilzomib-treatment 48 #2 / modulation upon carfilzomib-treatment 48 #3: −1: significantly down-modulated; 0: not signifcant/not detected; 1: significantly up-modulated
Conditions: U266 cells, vs mock-treated controls; for modulation upon carfilzomib-treatment 24 #1 / modulation upon carfilzomib-treatment 24 #2 / modulation upon carfilzomib-treatment 24 #3: 24 h after carfilzomib treatment (100 nM, 1 h); for modulation upon carfilzomib-treatment 24 #1 / modulation upon carfilzomib-treatment 48 #1: biological replicate #1; for modulation upon carfilzomib-treatment 24 #2 / modulation upon carfilzomib-treatment 48 #2: biological replicate #2; for modulation upon carfilzomib-treatment 24 #3 / modulation upon carfilzomib-treatment 48 #3: biological replicate #3; for modulation upon carfilzomib-treatment 48 #1 / modulation upon carfilzomib-treatment 48 #2 / modulation upon carfilzomib-treatment 48 #3: 48 h after carfilzomib treatment (100 nM, 1 h)
Description: HLA class I and II molecules were isolated using standard immunoaffinity purification as described using the pan-HLA class I specific mAb W6/32, the pan-HLA class II specific mAb T039 and the HLA-DR specific mAB L243 (produced in house).
HLA ligand extracts were analyzed in 5 technical replicates as described previously. In brief, peptide samples were separated by nanoflow HPLC (RSLCnano, ThermoFisher) using a 50 μm×25 cm PepMap RSLC column (Thermo Fisher) and a gradient ranging from 2.4 to 32.0% acetonitrile over the course of 90 min. Eluting peptides were analyzed in an online coupled LTQ Orbitrap XL mass spectrometer (Thermo Fisher) using a top 5 CID (collision induced dissociation) fragmentation method.
Data processing was performed as described previously. In brief, the Mascot search engine (Mascot 2.2.04; Matrix Science, London, UK) was implemented to search the human proteome as comprised in the Swiss-Prot database (20,279 reviewed protein sequences, September 2013) without enzymatic restriction. Potential mutated HLA ligands were searched implementing a database containing the human proteome concatenated with proteins containing single amino acid variants (SAVs) listed in the COSMIC database (http://cancer.sanger.ac.uk/cosmic/). Only recurrent SAVs described in 2 or more samples of hematological origin were included. Oxidized methionine was allowed as a dynamic modification. The false discovery rate was estimated using the Percolator algorithm and set to 5%. Peptide lengths were limited to 8-12 amino acids for HLA class I and 12-25 amino acids for HLA class II. Protein inference was disabled, allowing for multiple protein annotations of peptides. HLA annotation was performed using SYFPEITHI [46] or an extended in-house database. Experimental validation of peptide identifications and HLA annotations was performed by mass spectrometric and functional characterization of synthetic peptides for a subset of peptides.
The inventors quantitatively assessed HLA class I ligand presentation during proteasome inhibitor therapy. Observed was a considerable plasticity of the HLA class I ligandome after treatment with carfilzomib with 17.9±1.1% of MM.1S ligands and 11.2±0.7% of U266 ligands (mean of three biological replicates ±s.d.) showing significant modulation (fold-change ≥4, Po0.01 after Benjamini-Hochberg correction) at t24 h compared with mock-treated controls. Briefly, Cultured MCLs (MM.1S and U266) and primary myeloma samples were incubated with carfilzomib (100 nM, Kyprolis®, available, e.g., from Onyx Pharmaceuticals, Inc.) as an example for a proteasome inhibitor for a 1-h period, followed by three washes in PBS (Gibco) and recultured for additional 24 or 48 h. Controls were incubated with vehicle control (glucose 5%) for 1 h, followed by identical washing and incubation for 24 or 48 h. Experiments were conducted in three biological replicates where indicated.

Sequence	modulation upon carfilzomib-treatment 24 #1	modulation upon carfilzomib-treatment 24 #2	modulation upon carfilzomib-treatment 24 #3	modulation upon carfilzomib-treatment 48 #1	modulation upon carfilzomib-treatment 48 #2	modulation upon carfilzomib-treatment 48 #3
KEGLILPETL	1	1	0	0	0	0
KILKPVKKK	0	0	0	0	0	0
KLPLPLPPRL	0	0	0	0	0	0
KLSSLIILM	0	0	0	0	0	0
KPKDPLKISL	−1	−1	−1	0	−1	−1
KPSTKALVL	0	0	0	0	0	0
KTEVHIRPK	0	0	0	0	0	0
LLFPYILPPK	0	0	0	0	0	0
LPPPPHVPL	0	0	0	0	0	0
PELGPLPAL	0	0	0	0	0	0
REEGTPLTL	0	0	0	0	0	0
RPFHGWTSL	0	0	0	0	0	0
RPGPPTRPL	0	0	0	0	0	0
RPRPPVLSV	0	0	0	0	0	0
RQFWTRTKK	0	0	0	0	0	0
